Reference: patent publication US20140066385A1, “METHOD FOR TREATING CANCER BY COMBINED USE OF DRUGS” (Astellas Pharma Inc., priority 2011, published 2014)

Experiments:
[1] = tested on: human hormone-resistant prostatic cancer (PC-3); test: Example 10: FK330 with docetaxel in PC-3 tumor-bearing mice; type: in vivo, nude mice; settings: FK330 100 mg/kg bid p.o. + docetaxel 10 mg/kg/day i.v. (2 days each cycle)
Method: The dose of FK330 is expressed in terms of the weight of a simple substance (non-hydrate). Docetaxel (a docetaxel hydrate injectable preparation (Taxotere (trademark), for intravenous infusion)) was purchased from Sanofi-Aventis SA, and was used as docetaxel.
FK330 was suspended (20 mg/mL) in a 0.5% aqueous methyl cellulose solution (0.5% MC), and was orally administered. Docetaxel was prepared to a concentration of 20 mg/mL with 95% ethanol, and then diluted to 1 mg/mL with physiological saline for injection (Otsuka Pharmaceutical Group) immediately before administration and intravenously administered through the tail vein.
Human hormone-resistant prostatic cancer-derived PC-3 (CRL-1435) was obtained from American Type Culture Collection (VA, USA). […]
The body weight and the tumor diameter, determined by using a digital caliper, were measured twice a week. The tumor volume was calculated from the calculation formula for ellipsoid volume of (major axis×[minor axis]^2×0.5).
The results are expressed as the mean value (Mean)±standard error (SEM). […] Using the actual measured values of the tumor volume at each measurement time point, an unpaired statistical test (Student's t-test) of the difference between two groups was carried out between a single administration group and a combined use group. […]

[2] = biological target: T1, purified pig brain-derived tubulin (Sus scrofa, UniProt P02550+P02554); test: Example 7: fluorescence-based assay of tubulin polymerization reaction; type: biochemical; settings: paclitaxel final concentration 3 μmmol/L; 60 minutes after initiation; P<0.05
T1 construct: purified pig brain-derived tubulin (final concentration: 2 mg/mL); purchased Cytoskeleton, Inc. (Denver, Colo., USA); host or cells: pig brain (tissue-purified)
T1 sequence (P02554 whole entry): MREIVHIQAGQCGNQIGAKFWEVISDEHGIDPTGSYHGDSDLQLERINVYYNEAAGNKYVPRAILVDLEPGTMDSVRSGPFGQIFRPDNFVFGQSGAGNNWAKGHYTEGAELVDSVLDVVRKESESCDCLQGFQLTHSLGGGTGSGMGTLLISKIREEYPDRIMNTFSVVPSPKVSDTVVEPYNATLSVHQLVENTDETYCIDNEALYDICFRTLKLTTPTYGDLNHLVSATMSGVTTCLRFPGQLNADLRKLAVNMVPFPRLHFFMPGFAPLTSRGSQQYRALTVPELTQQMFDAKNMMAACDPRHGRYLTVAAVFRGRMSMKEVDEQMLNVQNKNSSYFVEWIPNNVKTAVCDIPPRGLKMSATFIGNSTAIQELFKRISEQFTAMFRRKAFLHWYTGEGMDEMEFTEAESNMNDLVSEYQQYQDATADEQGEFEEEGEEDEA
T1 sequence (P02550 whole entry): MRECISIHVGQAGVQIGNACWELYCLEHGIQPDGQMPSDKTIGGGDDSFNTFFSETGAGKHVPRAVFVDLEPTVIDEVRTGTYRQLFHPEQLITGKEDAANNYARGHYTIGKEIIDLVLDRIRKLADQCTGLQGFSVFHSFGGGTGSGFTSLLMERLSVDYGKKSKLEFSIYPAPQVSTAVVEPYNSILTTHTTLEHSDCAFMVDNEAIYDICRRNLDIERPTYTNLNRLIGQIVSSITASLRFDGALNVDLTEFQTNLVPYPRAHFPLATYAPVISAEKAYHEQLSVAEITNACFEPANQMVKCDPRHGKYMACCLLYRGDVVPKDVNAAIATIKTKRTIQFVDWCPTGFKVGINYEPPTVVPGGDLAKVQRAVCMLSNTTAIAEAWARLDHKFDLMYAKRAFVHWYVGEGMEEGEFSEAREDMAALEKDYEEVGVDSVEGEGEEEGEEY
Method: S-nitroso-N-acetyl-D,L-penicillamine (SNAP), which is a NO donor, was purchased from Cayman Chemical Co. (Ann Arbor, Mich., USA) and used. A tubulin polymerization analysis kit was purchased from Cytoskeleton, Inc. (Denver, Colo., USA) and used. For paclitaxel, a paclitaxel included in the analysis kit was used as paclitaxel. Docetaxel was purchased from Sigma-Aldrich Co. (St. Louis, Mo., USA) and was used as docetaxel.
A fluorescence-based assay of tubulin polymerization reaction was carried out according to the manufacturer's instruction of the kit. That is, purified pig brain-derived tubulin (final concentration: 2 mg/mL) and SNAP (final concentration: 200 or 500 μmol/L) were incubated at room temperature for 15 minutes or longer in the buffer solution included in the kit. Subsequently, paclitaxel (final concentration: 3 μmmol/L) or docetaxel (final concentration: 1 μmol/L), and […] (final concentration: 1 mmol/L) were added to this buffer mixture, and then was incubated for 60 minutes at 37° C. During this incubation, the fluorescence intensity (measurement wavelength: excitation 350 nm/fluorescence 435 nm) was measured every one minute by using a microplate reader (Spectramax, Molecular Devices, LLC, Sunnyvale, Calif., USA). The value of fluorescence intensity was expressed as a percentage relative to the SNAP and taxane-untreated group by using the value obtained 60 minutes after the initiation of the reaction, which corresponded to the equilibrium steady-state phase, and the average value for three experiments was taken as the value.
The results are expressed as the mean value (Mean)±standard error (SEM) of five independent experiments. A comparison between a paclitaxel- or docetaxel-treated group and an untreated group was carried out by an unpaired statistical test (Student's t-test) of the difference between two groups. A comparison between a SNAP-untreated group (control group) and SNAP-treated groups (200 μmol/L and 500 μmol/L) in the presence or absence of the taxane-family drugs was carried out by Dunnett's multiple comparison test. A difference value of less than 5% was considered to be statistically significant. For the data processing, Graphpad Prism version 5.03 was used.

| SMILES | tumor volume reduction ratio compared with the docetaxel-only group ([1]; Day 27, P<0.062) | tumor volume reduction ratio compared with the docetaxel-only group ([1]; Day 51, P<0.05) | tubulin polymerization (fluorescence intensity) as compared with the taxane-untreated group [2] |
| --- | --- | --- | --- |
| O=C(/C=C/c1ccc(Cl)cc1)N[C@@H](Cc1ccccn1)C(=O)NCC(=O)N1CCC(Oc2cc(C(F)(F)F)ncn2)CC1 [FK330, N^2-[(2E)-3-(4-chlorophenyl)-2-propenoyl]-N-[2-oxo-2-(4-{[6-(trifluoromethyl)pyrimidin-4-yl]oxy}piperidin-1-yl)ethyl]-3-pyridin-2-yl-L-alaninamide] | 49.3% | 42.0% |  |
| CC(=O)O[C@H]1C(=O)[C@@]2(C)[C@H]([C@H](OC(=O)c3ccccc3)[C@]3(O)C[C@H](OC(=O)[C@H](O)[C@@H](NC(=O)c4ccccc4)c4ccccc4)C(C)=C1C3(C)C)[C@]1(OC(C)=O)CO[C@@H]1C[C@@H]2O [paclitaxel, reference compound] |  |  | 152.7% |
